Read-outs that look alike come from different tables or passages of the source.
Key:
Format in all cases: cell-based
[1] = biological target: T1, GLP-1R (Homo sapiens, UniProt P43220); assay: GLP-1 activity test (cAMP, chemiluminescence)
T1 construct: expressed in transfected cells; host or cells: CHO-K1
Experimental: (§1) Upon stimulation by a specific agonist, GLP-1R activates the intracellular adenylate cyclase signaling pathway, resulting in an increase in cAMP levels and ultimately leading to insulin production and secretion. A cell line stably transfected with GLP-1R was stimulated with test compounds, thereby rapidly increasing intracellular cAMP levels. The relative luminescence units (RLU) of cells stimulated at various concentrations were measured by a chemiluminescence method, and the EC50 value of the agonist was calculated accordingly. This activity test method is currently a commonly used method for evaluating GLP-1 receptor agonist activity both domestically and internationally. A CHO-K1 cell line stably expressing GLP-1R was used. The stable cells were stimulated with agonists at different concentrations, and the relative luminescence units after stimulation at each concentration were measured to calculate the EC50 value of the agonist.

[2] = biological target: T2, GCG-R (Homo sapiens, UniProt P47871); assay: GCG activity test (cAMP, chemiluminescence)
T2 construct: expressed in transfected cells; host or cells: CHO-K1
Experimental: Upon stimulation by a specific agonist, GCG-R activates the intracellular adenylate cyclase signaling pathway, resulting in an increase in cAMP levels and ultimately leading to insulin production and secretion. A cell line stably transfected with GCG-R was stimulated with test compounds, thereby rapidly increasing intracellular cAMP levels. The relative luminescence units (RLU) of cells stimulated at various concentrations were measured by a chemiluminescence method, and the EC50 value of the agonist was calculated accordingly. This activity assay method is currently a commonly used method for evaluating GCG receptor agonist activity both domestically and internationally.
A CHO-K1 cell line stably expressing GCG-R was used. The stable cells were stimulated with agonists at different concentrations, and the relative luminescence units after stimulation at each concentration were measured to calculate the EC50 value of the agonist.

[3] = biological target: T3, GIPR (Homo sapiens, UniProt P48546); assay: GIP activity test (cAMP, chemiluminescence)
T3 construct: expressed in transfected cells; host or cells: CHO-K1
T3 sequence (P48546 22-466): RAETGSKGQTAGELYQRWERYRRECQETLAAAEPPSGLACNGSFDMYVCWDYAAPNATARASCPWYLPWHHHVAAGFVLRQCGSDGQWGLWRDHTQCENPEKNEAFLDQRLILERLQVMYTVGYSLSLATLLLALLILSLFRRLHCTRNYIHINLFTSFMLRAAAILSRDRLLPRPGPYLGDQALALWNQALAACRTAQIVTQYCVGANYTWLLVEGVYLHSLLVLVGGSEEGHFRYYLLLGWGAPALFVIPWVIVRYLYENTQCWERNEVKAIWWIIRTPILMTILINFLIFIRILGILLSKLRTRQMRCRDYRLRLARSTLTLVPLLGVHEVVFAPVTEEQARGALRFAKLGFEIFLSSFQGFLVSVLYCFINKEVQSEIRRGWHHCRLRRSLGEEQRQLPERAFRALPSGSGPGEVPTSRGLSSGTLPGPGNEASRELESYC
Experimental: as §1, with “agonist, GIPR” for “agonist, GLP-1R”, “with GIPR” for “with GLP-1R”, “activity assay” for “activity test”, “evaluating GIP” for “evaluating GLP-1”, “expressing GIPR” for “expressing GLP-1R”

T2 sequence (P47871 26-477, species assumed): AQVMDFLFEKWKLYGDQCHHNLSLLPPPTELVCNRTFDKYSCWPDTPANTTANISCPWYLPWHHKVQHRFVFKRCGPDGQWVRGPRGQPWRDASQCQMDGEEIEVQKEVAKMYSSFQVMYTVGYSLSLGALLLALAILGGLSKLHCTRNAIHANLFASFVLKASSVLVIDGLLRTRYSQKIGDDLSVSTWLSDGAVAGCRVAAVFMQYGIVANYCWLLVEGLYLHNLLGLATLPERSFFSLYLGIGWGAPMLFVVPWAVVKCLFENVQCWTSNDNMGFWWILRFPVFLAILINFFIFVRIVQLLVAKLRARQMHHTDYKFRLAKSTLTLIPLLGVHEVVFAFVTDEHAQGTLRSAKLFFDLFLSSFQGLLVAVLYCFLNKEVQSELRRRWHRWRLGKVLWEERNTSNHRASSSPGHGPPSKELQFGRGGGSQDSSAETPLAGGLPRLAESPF
T1 sequence (P43220 24-463, species assumed): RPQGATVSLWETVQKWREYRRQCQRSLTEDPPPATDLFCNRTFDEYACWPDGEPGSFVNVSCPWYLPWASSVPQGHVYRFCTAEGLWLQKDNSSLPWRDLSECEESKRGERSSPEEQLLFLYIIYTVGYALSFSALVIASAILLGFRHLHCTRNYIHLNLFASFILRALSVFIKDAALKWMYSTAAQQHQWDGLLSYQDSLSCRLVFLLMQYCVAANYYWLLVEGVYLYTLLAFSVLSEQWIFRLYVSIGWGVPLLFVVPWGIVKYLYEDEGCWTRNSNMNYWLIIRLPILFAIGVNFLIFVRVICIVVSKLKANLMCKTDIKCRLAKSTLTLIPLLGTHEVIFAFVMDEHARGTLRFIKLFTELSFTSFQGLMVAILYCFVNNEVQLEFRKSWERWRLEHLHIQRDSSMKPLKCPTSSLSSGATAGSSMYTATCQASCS

| Structure (SMILES) | EC50 [1] [nM] | EC50 [2] [nM] | EC50 [3] [nM] | EC50 ([1]; CHO-K1 cell line stably expressing GLP-1R, cAMP, relative luminescence units, read-out: GLP-1 [EC50(pmol)]) [nM] | EC50 ([2]; CHO-K1 cell line stably expressing GCG-R, cAMP, relative luminescence units, read-out: GCG [EC50(pmol)]) [nM] | EC50 ([3]; CHO-K1 cell line stably expressing GIPR, cAMP, relative luminescence units, read-out: GIP [EC50(pmol)]) [nM] |
| --- | --- | --- | --- | --- | --- | --- |
| CC[C@H](C)[C@H](NC(=O)[C@H](Cc1ccccc1)NC(=O)[C@H](C)NC(=O)C(C)(C)NC(=O)[C@H](CCC(N)=O)NC(=O)[C@H](C)NC(=O)[C@H](CCCCNC(=O)COCCOCCNC(=O)COCCOCCNC(=O)CC[C@H](NC(=O)CCCCCCCCCCCCCCCCCCC(=O)O)C(=O)O)NC(=O)[C@H](CCCCN)NC(=O)[C@H](CC(=O)O)NC(=O)[C@H](CC(C)C)NC(=O)C(C)(CC(C)C)NC(=O)[C@@H](NC(=O)[C@H](CO)NC(=O)[C@H](Cc1ccc(O)cc1)NC(=O)[C@H](CC(=O)O)NC(=O)[C@H](CO)NC(=O)[C@@H](NC(=O)C(C)(Cc1ccccc1)NC(=O)[C@@H](NC(=O)CNC(=O)[C@H](CCC(N)=O)NC(=O)C(C)(C)NC(=O)[C@@H](N)Cc1ccc(O)cc1)[C@@H](C)O)[C@@H](C)O)[C@@H](C)CC)C(=O)N[C@@H](CCC(=O)O)C(=O)N[C@@H](Cc1ccc(O)cc1)C(=O)N[C@@H](CC(C)C)C(=O)N[C@@H](CC(C)C)C(=O)N[C@@H](CCC(=O)O)C(=O)NCCCCC(=O)N1CCC[C@H]1C(=O)N[C@@H](CO)C(=O)N[C@@H](CO)C(=O)NCC(=O)N[C@@H](C)C(=O)N1CCC[C@H]1C(=O)N1CCC[C@H]1C(=O)N1CCC[C@H]1C(=O)N[C@@H](CO)C(N)=O (stereo partly drawn) [Compound 9] | 0.0519 | 0.307 | 0.0268 |  |  |  |
| CC[C@H](C)[C@H](NC(=O)[C@H](Cc1ccccc1)NC(=O)[C@H](C)NC(=O)C(C)(C)NC(=O)[C@H](CCC(N)=O)NC(=O)[C@H](C)NC(=O)[C@H](CCCCNC(=O)COCCOCCNC(=O)COCCOCCNC(=O)CC[C@H](NC(=O)CCCCCCCCCCCCCCCCCCC(=O)O)C(=O)O)NC(=O)[C@H](CCCCN)NC(=O)[C@H](CC(=O)O)NC(=O)[C@H](CC(C)C)NC(=O)C(C)(CC(C)C)NC(=O)[C@@H](NC(=O)[C@H](CO)NC(=O)[C@H](Cc1ccc(O)cc1)NC(=O)[C@H](CC(=O)O)NC(=O)[C@H](CO)NC(=O)[C@@H](NC(=O)C(C)(Cc1ccccc1F)NC(=O)[C@@H](NC(=O)CNC(=O)[C@H](CCC(N)=O)NC(=O)C(C)(C)NC(=O)[C@@H](N)Cc1ccc(O)cc1)[C@@H](C)O)[C@@H](C)O)[C@@H](C)CC)C(=O)N[C@@H](CCC(=O)O)C(=O)N[C@@H](Cc1ccc(O)cc1)C(=O)N[C@@H](CC(C)C)C(=O)N[C@@H](CC(C)C)C(=O)N[C@@H](CCC(=O)O)C(=O)NCCCCC(=O)N1CCC[C@H]1C(=O)N[C@@H](CO)C(=O)N[C@@H](CO)C(=O)NCC(=O)N[C@@H](C)C(=O)N1CCC[C@H]1C(=O)N1CCC[C@H]1C(=O)N1CCC[C@H]1C(=O)N[C@@H](CO)C(N)=O (stereo partly drawn) [Compound 11] | 0.0487 | 0.174 | 0.0253 |  |  |  |
| CC[C@H](C)[C@H](NC(=O)[C@H](Cc1ccccc1)NC(=O)[C@H](C)NC(=O)C(C)(C)NC(=O)[C@H](CCC(N)=O)NC(=O)[C@H](C)NC(=O)[C@H](CCCCNC(=O)COCCOCCNC(=O)CCCC[C@H](NC(=O)CCCCCCCCCCCCCCCCCCC(=O)O)C(=O)O)NC(=O)[C@H](CCCCN)NC(=O)[C@H](CC(=O)O)NC(=O)[C@H](CC(C)C)NC(=O)C(C)(CC(C)C)NC(=O)[C@@H](NC(=O)[C@H](CO)NC(=O)[C@H](Cc1ccc(O)cc1)NC(=O)[C@H](CC(=O)O)NC(=O)[C@H](CO)NC(=O)[C@@H](NC(=O)C(C)(Cc1ccccc1F)NC(=O)[C@@H](NC(=O)CNC(=O)[C@H](CCC(N)=O)NC(=O)C(C)(C)NC(=O)[C@@H](N)Cc1ccc(O)cc1)[C@@H](C)O)[C@@H](C)O)[C@@H](C)CC)C(=O)N[C@@H](CCC(=O)O)C(=O)N[C@@H](Cc1ccc(O)cc1)C(=O)N[C@@H](CC(C)C)C(=O)N[C@@H](CC(C)C)C(=O)N[C@@H](CCC(=O)O)C(=O)NCCCCC(=O)N1CCC[C@H]1C(=O)N[C@@H](CO)C(=O)N[C@@H](CO)C(=O)NCC(=O)N[C@@H](C)C(=O)N1CCC[C@H]1C(=O)N1CCC[C@H]1C(=O)N1CCC[C@H]1C(=O)N[C@@H](CO)C(N)=O (stereo partly drawn) [Compound 7] | 0.0455 | 0.163 | 0.0246 |  |  |  |
| CC[C@H](C)[C@H](NC(=O)[C@H](Cc1ccccc1)NC(=O)[C@H](C)NC(=O)C(C)(C)NC(=O)[C@H](CCC(N)=O)NC(=O)[C@H](C)NC(=O)[C@H](CCCCNC(=O)COCCOCCNC(=O)CCCCC[C@H](NC(=O)CCCCCCCCCCCCCCCCCCC(=O)O)C(=O)O)NC(=O)[C@H](CCCCN)NC(=O)[C@H](CC(=O)O)NC(=O)[C@H](CC(C)C)NC(=O)C(C)(CC(C)C)NC(=O)[C@@H](NC(=O)[C@H](CO)NC(=O)[C@H](Cc1ccc(O)cc1)NC(=O)[C@H](CC(=O)O)NC(=O)[C@H](CO)NC(=O)[C@@H](NC(=O)C(C)(Cc1ccccc1)NC(=O)[C@@H](NC(=O)CNC(=O)[C@H](CCC(N)=O)NC(=O)C(C)(C)NC(=O)[C@@H](N)Cc1ccc(O)cc1)[C@@H](C)O)[C@@H](C)O)[C@@H](C)CC)C(=O)N[C@@H](CCC(=O)O)C(=O)N[C@@H](Cc1ccc(O)cc1)C(=O)N[C@@H](CC(C)C)C(=O)N[C@@H](CC(C)C)C(=O)N[C@@H](CCC(=O)O)C(=O)NCCCCC(=O)N1CCC[C@H]1C(=O)N[C@@H](CO)C(=O)N[C@@H](CO)C(=O)NCC(=O)N[C@@H](C)C(=O)N1CCC[C@H]1C(=O)N1CCC[C@H]1C(=O)N1CCC[C@H]1C(=O)N[C@@H](CO)C(N)=O (stereo partly drawn) [Compound 4] | 0.0554 | 0.286 | 0.031 |  |  |  |
| CC[C@H](C)[C@H](NC(=O)[C@H](Cc1ccccc1)NC(=O)[C@H](C)NC(=O)C(C)(C)NC(=O)[C@H](CCC(N)=O)NC(=O)[C@H](C)NC(=O)[C@H](CCCCNC(=O)COCCOCCNC(=O)CCCC[C@H](NC(=O)CCCCCCCCCCCCCCCCCCC(=O)O)C(=O)O)NC(=O)[C@H](CCCCN)NC(=O)[C@H](CC(=O)O)NC(=O)[C@H](CC(C)C)NC(=O)C(C)(CC(C)C)NC(=O)[C@@H](NC(=O)[C@H](CO)NC(=O)[C@H](Cc1ccc(O)cc1)NC(=O)[C@H](CC(=O)O)NC(=O)[C@H](CO)NC(=O)[C@@H](NC(=O)C(C)(Cc1ccccc1)NC(=O)[C@@H](NC(=O)CNC(=O)[C@H](CCC(N)=O)NC(=O)C(C)(C)NC(=O)[C@@H](N)Cc1ccc(O)cc1)[C@@H](C)O)[C@@H](C)O)[C@@H](C)CC)C(=O)N[C@@H](CCC(=O)O)C(=O)N[C@@H](Cc1ccc(O)cc1)C(=O)N[C@@H](CC(C)C)C(=O)N[C@@H](CC(C)C)C(=O)N[C@@H](CCC(=O)O)C(=O)NCCCCC(=O)N1CCC[C@H]1C(=O)N[C@@H](CO)C(=O)N[C@@H](CO)C(=O)NCC(=O)N[C@@H](C)C(=O)N1CCC[C@H]1C(=O)N1CCC[C@H]1C(=O)N1CCC[C@H]1C(=O)N[C@@H](CO)C(N)=O (stereo partly drawn) [Compound 3] | 0.0452 | 0.283 | 0.0267 |  |  |  |
| CC[C@H](C)[C@H](NC(=O)[C@H](Cc1ccccc1)NC(=O)[C@H](C)NC(=O)C(C)(C)NC(=O)[C@H](CCC(N)=O)NC(=O)[C@H](C)NC(=O)[C@H](CCCCNC(=O)COCCOCCNC(=O)CC[C@H](NC(=O)CCCCCCCCCCCCCCCCCCC(=O)O)C(=O)O)NC(=O)[C@H](CCCCN)NC(=O)[C@H](CC(=O)O)NC(=O)[C@H](CC(C)C)NC(=O)[C@](C)(CC(C)C)NC(=O)[C@@H](NC(=O)[C@H](CO)NC(=O)[C@H](Cc1ccc(O)cc1)NC(=O)[C@H](CC(=O)O)NC(=O)[C@H](CO)NC(=O)[C@@H](NC(=O)[C@H](Cc1ccccc1)NC(=O)[C@@H](NC(=O)CNC(=O)[C@H](CCC(N)=O)NC(=O)C(C)(C)NC(=O)[C@@H](N)Cc1ccc(O)cc1)[C@@H](C)O)[C@@H](C)O)[C@@H](C)CC)C(=O)N[C@@H](CCC(=O)O)C(=O)N[C@@H](Cc1ccc(O)cc1)C(=O)N[C@@H](CC(C)C)C(=O)N[C@@H](CC(C)C)C(=O)N[C@@H](CCC(=O)O)C(=O)NCC(=O)NCC(=O)N1CCC[C@H]1C(=O)N[C@@H](CO)C(=O)N[C@@H](CO)C(=O)NCC(=O)N[C@@H](C)C(=O)N1CCC[C@H]1C(=O)N1CCC[C@H]1C(=O)N1CCC[C@H]1C(=O)N[C@@H](CO)C(N)=O [retatrutide, Retatrutide, reference compound] |  |  |  | 0.046 | 0.523 | 0.0342 |

Reference: EP4806910A1, “TRI-AGONIST COMPOUND” (priority 2023, dated 2025)
